Assay results: the supplement of paper PMC4862054

Tests used:
Settings in all cases: incubation time: 72 h
[1] = system: BT-474; experiment: normalised response (% of control), CellTox Green; higher = less cell death (100 = DMSO, 0 = benzethonium chloride kill control)
How it was run: (§1)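 Two readouts were taken after 72 h: CellTox Green fluorescence (485/520 nm) first, then CellTiter-Glo luminescence after 10 min at room temperature. Breast cancer cell lines had been seeded as 20 µl suspension into 384-well plates holding compound at 5 concentrations in 10-fold steps across a compound-specific 10,000-fold range. Each value is a normalised signal at a single concentration, with plates scaled to 0.1 % DMSO (100) and a positive kill control (0).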

[2] = system: BT-549; experiment: as above
How it was run: as §1

[3] = system: CAL-120; experiment: as above
How it was run: as §1

[4] = system: CAL-148; experiment: as above
How it was run: as §1

[5] = system: CAL-51; experiment: as above
How it was run: as §1

[6] = system: CAL-85-1; experiment: as above
How it was run: as §1

[7] = system: DU-4475; experiment: as above
How it was run: as §1

[8] = system: HCC1143; experiment: as above
How it was run: as §1

[9] = system: HCC1599; experiment: as above
How it was run: as §1

[10] = system: HCC1937; experiment: as above
How it was run: as §1

[11] = system: HDQ-P1; experiment: as above
How it was run: as §1

[12] = system: Hs578T; experiment: as above
How it was run: as §1

[13] = system: MCF-10A; experiment: as above
How it was run: as §1

[14] = system: MDA-MB-231; experiment: as above
How it was run: as §1

[15] = system: MDA-MB-436; experiment: as above
How it was run: as §1

[16] = system: MDA-MB-453; experiment: as above
How it was run: as §1

[17] = system: MDA-MB-468; experiment: as above
How it was run: as §1

[18] = system: MFM-223; experiment: as above
How it was run: as §1

[19] = system: BT-474; experiment: normalised response (% of control), CellTiter-Glo; higher = more viable cells (100 = DMSO, 0 = benzethonium chloride kill control)
Method: (§2)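 DSRT, 72 h incubation, CellTox Green / CellTiter-Glo readout. Signal is normalised to DMSO and benzethonium chloride controls. Value is the normalised response at dose 3.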

[20] = system: BT-549; experiment: as above
Method: as §2

[21] = system: CAL-120; experiment: as above
Method: as §2

[22] = system: CAL-148; experiment: as above
Method: as §2

[23] = system: CAL-51; experiment: as above
Method: as §2

[24] = system: CAL-85-1; experiment: as above
Method: as §2

[25] = system: DU-4475; experiment: as above
Method: as §2

[26] = system: HCC1143; experiment: as above
Method: as §2

[27] = system: HCC1599; experiment: as above
Method: as §2

[28] = system: HCC1937; experiment: as above
Method: as §2

[29] = system: HDQ-P1; experiment: as above
Method: as §2

[30] = system: Hs578T; experiment: as above
Method: as §2

[31] = system: MCF-10A; experiment: as above
Method: as §2

[32] = system: MDA-MB-231; experiment: as above
Method: as §2

[33] = system: MDA-MB-436; experiment: as above
Method: as §2

[34] = system: MDA-MB-453; experiment: as above
Method: as §2

[35] = system: MDA-MB-468; experiment: as above
Method: as §2

[36] = system: MFM-223; experiment: as above
Method: as §2

[37] = system: SK-BR-3; experiment: as above
Method: as §2

Row | SMILES | normalised response [1] [%] | normalised response [2] [%] | normalised response [3] [%] | normalised response [4] [%] | normalised response [5] [%] | normalised response [6] [%] | normalised response [7] [%] | normalised response [8] [%] | normalised response [9] [%] | normalised response [10] [%] | normalised response [11] [%] | normalised response [12] [%] | normalised response [13] [%] | normalised response [14] [%] | normalised response [15] [%] | normalised response [16] [%] | normalised response [17] [%] | normalised response [18] [%] | normalised response [19] [%] | normalised response [20] [%] | normalised response [21] [%] | normalised response [22] [%] | normalised response [23] [%] | normalised response [24] [%] | normalised response [25] [%] | normalised response [26] [%] | normalised response [27] [%] | normalised response [28] [%] | normalised response [29] [%] | normalised response [30] [%] | normalised response [31] [%] | normalised response [32] [%] | normalised response [33] [%] | normalised response [34] [%] | normalised response [35] [%] | normalised response [36] [%] | normalised response [37] [%]
1 | Cc1cc(Nc2cc(CN3CCOCC3)c3nc(C)c(Cc4ccc(Cl)cc4F)n3n2)n[nH]1 [Gandotinib] (100 nM) | 100 | 90 | 89 | 103 | 98.9 | 95 | 99.2 | 108 | 112 | 102 | 109 | 72 | 84.8 | 103 | 100 | 102 | 119 | 105 | 99.9 | 94.4 | 96.1 | 105 | 94.3 | 102 | 101 | 109 | 85.9 | 104 | 110 | 96.3 | 105 | 98.8 | 105 | 104 | 97.9 | 93.4 | 95.6
2 | NC(=O)c1ccc(I)c([N+](=O)[O-])c1 [Iniparib] (100 nM) | 95.7 | 106 | 99.1 | 53.4 | 98.5 | 103 | 94.2 | 70.8 | 83.9 | 92.4 | 99.5 | 94.2 | 100 | 83 | 67.8 | 99.1 | 128 | 97.5 | 92 | 99 | 89.6 | 84.8 | 117 | 92 | 98.8 | 96.9 | 94 | 93.1 | 95 | 92.8 | 76.1 | 90.9 | 93 | 78.5 | 85.2 | 82.7 | 80.9
3 | CNC(=O)c1ccc(N2C(=S)N(c3ccc(C#N)c(C(F)(F)F)c3)C(=O)C23CCC3)cc1F [RD162] (100 nM) | 104 | 106 | 104 | 87 | 105 | 101 | 103 | 84.3 | 102 | 107 | 96.8 | 88 | 110 | 113 | 83.4 | 107 | 87.9 | 103 | 94.2 | 97.8 | 103 | 101 | 97.3 | 96.4 | 102 | 101 | 111 | 91.3 | 99.7 | 102 | 116 | 99.7 | 101 | 108 | 108 | 103 | 103
4 | COCC[n+]1c2c(n(Cc3cnccn3)c1C)C(=O)c1ccccc1C2=O [YM155] (100 nM) | -29.1 | 88.9 | -16.3 | 18.9 | 21.2 | -130 | 92.8 | 75.2 | 71.7 | 22.8 | -5.41 | 106 | -8.31 | 0.07 | 19.2 | 87.8 | -69.5 | 70.4 | 5.9 | 36.9 | -0.1 | 0.53 | 2.89 | -0.47 | 20.4 | 1.4 | 9.07 | 0.92 | 1.96 | 62 | 6.51 | 1.55 | 1.98 | 27.8 | 0.08 | 26.2 | 4.6
